Tests used:
[1] = target: T1, α-D-glucosidase (Yeast) (Saccharomyces cerevisiae, UniProt P53341); conditions: typical DNJ inhibitory activity shown for reference, in words; cited from earlier work
T1 construct: purchased Sigma-Aldrich

[2] = test system: glycogen phosphorylase; experiment: Glycogen phosphorylase assay; assay type: biochemical; conditions: words, no concentration
[3] = target: T2, α-L-fucosidase (bovine) (Bos taurus, UniProt Q2KIM0); design: key: NI = no inhibition; conditions: typical DNJ inhibitory activity shown for reference, in words; cited from earlier work
T2 construct: purchased Sigma-Aldrich
T2 sequence (Q2KIM0 23-468): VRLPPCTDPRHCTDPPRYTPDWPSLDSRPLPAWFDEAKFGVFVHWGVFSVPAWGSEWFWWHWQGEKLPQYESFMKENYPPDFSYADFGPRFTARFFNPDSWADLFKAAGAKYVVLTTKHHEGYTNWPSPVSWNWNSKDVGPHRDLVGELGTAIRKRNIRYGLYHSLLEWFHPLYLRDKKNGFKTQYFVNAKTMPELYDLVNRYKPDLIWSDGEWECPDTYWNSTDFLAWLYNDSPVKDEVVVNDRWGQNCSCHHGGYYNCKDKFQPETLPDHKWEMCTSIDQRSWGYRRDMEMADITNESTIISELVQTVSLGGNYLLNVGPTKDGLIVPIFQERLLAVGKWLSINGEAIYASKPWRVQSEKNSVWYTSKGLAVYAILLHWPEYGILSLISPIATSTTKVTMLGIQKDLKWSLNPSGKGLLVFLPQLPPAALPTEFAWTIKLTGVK

[4] = target: T3, amyloglucosidase (A. niger) (Aspergillus niger, UniProt P69328); design: key: NI = no inhibition; conditions: typical DNJ inhibitory activity shown for reference, in words; cited from earlier work
T3 construct: purchased Sigma-Aldrich

[5] = test system: N-acetyl-β-D-gluc (Jack bean); design: key: NI = no inhibition; conditions: typical DNJ inhibitory activity shown for reference, in words; cited from earlier work
[6] = test system: N-acetyl-β-D-gluc (Bovine kidney); design: key: NI = no inhibition; conditions: typical DNJ inhibitory activity shown for reference, in words; cited from earlier work
[7] = test system: naringinase (P. decumbens); design: key: NI = no inhibition; conditions: typical DNJ inhibitory activity shown for reference, in words; cited from earlier work
[8] = target: T4, β-glucuronidase (bovine liver) (Bos taurus, UniProt A3KMY8); design: key: NI = no inhibition; conditions: typical DNJ inhibitory activity shown for reference, in words; cited from earlier work
T4 construct: purchased Sigma-Aldrich; host or cells: bovine liver
T4 sequence (A3KMY8 1-652): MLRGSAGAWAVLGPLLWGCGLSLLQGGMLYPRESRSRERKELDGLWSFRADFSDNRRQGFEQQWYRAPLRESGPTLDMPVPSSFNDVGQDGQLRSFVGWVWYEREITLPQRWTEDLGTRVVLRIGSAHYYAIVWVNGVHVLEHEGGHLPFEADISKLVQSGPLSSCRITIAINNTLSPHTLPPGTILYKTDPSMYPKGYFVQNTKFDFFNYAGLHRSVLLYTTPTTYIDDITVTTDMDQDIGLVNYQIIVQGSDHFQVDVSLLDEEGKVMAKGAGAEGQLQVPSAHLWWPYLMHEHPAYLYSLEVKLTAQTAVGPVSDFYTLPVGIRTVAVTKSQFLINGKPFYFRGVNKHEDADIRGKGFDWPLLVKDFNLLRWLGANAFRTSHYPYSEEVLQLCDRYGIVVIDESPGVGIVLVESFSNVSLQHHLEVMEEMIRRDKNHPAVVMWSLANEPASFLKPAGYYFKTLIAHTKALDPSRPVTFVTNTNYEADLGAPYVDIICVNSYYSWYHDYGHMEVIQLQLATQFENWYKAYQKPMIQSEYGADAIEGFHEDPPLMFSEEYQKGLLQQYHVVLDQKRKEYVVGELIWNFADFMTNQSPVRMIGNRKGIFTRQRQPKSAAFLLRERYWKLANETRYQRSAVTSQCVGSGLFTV

[9] = target: T5, β-D-galactosidase (bovine) (Bos taurus, UniProt Q58D55); design: key: NI = no inhibition; conditions: typical DNJ inhibitory activity shown for reference, in words; cited from earlier work
T5 construct: purchased Sigma-Aldrich
T5 sequence (Q58D55 28-653): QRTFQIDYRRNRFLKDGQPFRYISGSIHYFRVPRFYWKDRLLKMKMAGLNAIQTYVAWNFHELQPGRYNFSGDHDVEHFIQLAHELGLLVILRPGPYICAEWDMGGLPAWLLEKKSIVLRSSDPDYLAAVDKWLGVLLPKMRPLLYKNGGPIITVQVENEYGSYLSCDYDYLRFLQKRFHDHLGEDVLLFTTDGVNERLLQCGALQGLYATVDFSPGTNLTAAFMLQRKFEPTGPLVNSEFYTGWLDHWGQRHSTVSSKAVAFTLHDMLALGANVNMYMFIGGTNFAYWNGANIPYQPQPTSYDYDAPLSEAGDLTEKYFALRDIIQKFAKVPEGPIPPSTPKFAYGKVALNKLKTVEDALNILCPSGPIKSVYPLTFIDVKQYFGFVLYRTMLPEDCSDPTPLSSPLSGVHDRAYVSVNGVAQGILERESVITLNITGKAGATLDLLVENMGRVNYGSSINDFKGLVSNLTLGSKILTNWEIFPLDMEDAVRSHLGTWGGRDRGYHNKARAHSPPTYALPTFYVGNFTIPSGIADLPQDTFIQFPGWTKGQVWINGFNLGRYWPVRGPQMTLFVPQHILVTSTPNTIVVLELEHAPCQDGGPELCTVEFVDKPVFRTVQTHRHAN

[10] = test system: β-D-mannosidase Cellulomonas fimi; design: key: NI = no inhibition; conditions: typical DNJ inhibitory activity shown for reference, in words; cited from earlier work
[11] = test system: α-D-glucosidase (Bacillus); conditions: typical DNJ inhibitory activity shown for reference, in words; cited from earlier work
[12] = target: T6, α-D-galactosidase (green coffee bean) (Coffea arabica, UniProt Q42656); conditions: typical DNJ inhibitory activity shown for reference, in words; cited from earlier work
T6 construct: purchased Sigma-Aldrich

[13] = target: T7, α-D-glucosidase (rice) (Oryza sativa subsp. japonica, UniProt Q653V7); conditions: typical DNJ inhibitory activity shown for reference, in words; cited from earlier work
T7 construct: purchased Sigma-Aldrich

[14] = test system: β-D-glucosidase (almond); conditions: typical DNJ inhibitory activity shown for reference, in words; cited from earlier work

T7 sequence (Q653V7 34-885): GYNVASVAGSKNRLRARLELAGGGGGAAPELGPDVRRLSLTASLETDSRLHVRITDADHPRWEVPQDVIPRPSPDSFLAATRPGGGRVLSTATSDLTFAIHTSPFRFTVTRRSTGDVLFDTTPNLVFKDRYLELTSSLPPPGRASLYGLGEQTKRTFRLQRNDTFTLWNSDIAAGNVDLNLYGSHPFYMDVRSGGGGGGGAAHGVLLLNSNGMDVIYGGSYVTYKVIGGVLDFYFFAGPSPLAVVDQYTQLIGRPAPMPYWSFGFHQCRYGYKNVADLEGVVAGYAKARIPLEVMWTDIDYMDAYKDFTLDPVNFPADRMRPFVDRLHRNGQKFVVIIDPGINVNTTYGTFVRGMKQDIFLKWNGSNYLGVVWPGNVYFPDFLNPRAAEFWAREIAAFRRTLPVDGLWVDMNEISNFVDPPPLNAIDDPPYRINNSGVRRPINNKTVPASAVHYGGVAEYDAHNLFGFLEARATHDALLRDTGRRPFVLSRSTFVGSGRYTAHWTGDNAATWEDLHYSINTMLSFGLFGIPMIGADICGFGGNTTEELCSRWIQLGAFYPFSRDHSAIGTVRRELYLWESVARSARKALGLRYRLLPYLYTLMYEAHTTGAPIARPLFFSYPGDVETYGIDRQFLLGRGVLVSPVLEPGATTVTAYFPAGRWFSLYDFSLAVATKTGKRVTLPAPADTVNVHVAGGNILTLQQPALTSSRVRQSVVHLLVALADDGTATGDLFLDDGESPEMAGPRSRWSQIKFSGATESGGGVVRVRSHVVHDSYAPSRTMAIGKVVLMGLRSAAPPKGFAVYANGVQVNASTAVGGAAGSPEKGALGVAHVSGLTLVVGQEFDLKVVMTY
T1 sequence (P53341 whole entry): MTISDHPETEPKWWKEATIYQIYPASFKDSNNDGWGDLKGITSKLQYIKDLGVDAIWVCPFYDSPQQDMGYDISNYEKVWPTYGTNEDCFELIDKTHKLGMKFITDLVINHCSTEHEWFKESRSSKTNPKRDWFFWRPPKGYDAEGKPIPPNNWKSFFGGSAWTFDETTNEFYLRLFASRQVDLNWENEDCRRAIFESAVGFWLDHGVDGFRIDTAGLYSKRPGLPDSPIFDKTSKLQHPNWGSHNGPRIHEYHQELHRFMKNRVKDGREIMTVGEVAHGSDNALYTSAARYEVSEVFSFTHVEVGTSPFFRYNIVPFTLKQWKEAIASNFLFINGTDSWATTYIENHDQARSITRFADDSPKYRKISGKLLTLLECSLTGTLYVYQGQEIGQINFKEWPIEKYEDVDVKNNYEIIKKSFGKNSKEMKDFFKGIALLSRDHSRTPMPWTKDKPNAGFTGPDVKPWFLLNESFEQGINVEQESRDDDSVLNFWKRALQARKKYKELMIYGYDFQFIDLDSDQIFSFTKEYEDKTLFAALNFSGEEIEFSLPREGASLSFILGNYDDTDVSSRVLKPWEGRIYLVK
T6 sequence (Q42656 16-378): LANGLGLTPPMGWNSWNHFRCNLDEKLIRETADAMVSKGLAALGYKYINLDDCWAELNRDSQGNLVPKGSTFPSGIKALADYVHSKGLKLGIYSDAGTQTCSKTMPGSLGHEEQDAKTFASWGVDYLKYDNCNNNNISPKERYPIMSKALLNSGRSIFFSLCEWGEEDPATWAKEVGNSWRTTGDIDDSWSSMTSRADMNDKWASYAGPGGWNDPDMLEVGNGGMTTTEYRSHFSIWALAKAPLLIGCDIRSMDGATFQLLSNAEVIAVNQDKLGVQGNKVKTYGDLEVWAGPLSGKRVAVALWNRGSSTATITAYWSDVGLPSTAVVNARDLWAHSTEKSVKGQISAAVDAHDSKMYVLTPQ
T3 sequence (P69328 25-640): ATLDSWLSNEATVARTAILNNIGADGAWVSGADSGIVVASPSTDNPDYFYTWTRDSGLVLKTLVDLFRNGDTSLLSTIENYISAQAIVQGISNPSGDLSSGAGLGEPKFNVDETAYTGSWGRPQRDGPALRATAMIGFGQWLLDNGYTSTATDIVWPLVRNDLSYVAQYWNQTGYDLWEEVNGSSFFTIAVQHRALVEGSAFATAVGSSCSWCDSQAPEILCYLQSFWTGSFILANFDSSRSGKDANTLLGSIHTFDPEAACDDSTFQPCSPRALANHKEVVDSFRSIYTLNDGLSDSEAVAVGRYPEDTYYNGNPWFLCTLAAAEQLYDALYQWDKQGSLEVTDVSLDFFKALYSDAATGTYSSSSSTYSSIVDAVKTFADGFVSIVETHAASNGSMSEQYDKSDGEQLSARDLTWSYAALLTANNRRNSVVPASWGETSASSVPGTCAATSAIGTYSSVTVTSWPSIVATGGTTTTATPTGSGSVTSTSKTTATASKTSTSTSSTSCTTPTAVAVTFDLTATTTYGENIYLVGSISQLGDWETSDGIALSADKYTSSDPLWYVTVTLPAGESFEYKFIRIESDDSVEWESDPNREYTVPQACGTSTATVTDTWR

**Q.** For `OC[C@H]1NC[C@H](O)[C@@H](O)[C@@H]1O` [DNJ, 1 deoxynojirmycin], which “α-D-glu Yeast, typical DNJ inhibitory activity” value [1] is on record?
**A.** weak

**Q.** What about the “glycogen phosphorylase inhibition” value [2] of the same molecule?
**A.** do not inhibit

**Q.** What about the “α-L-fuc bovine, typical DNJ inhibitory activity” value [3] of the same molecule?
**A.** NI

**Q.** What about the “amyloglucosidase (A. niger), typical DNJ inhibitory activity” value [4] of the same molecule?
**A.** NI

**Q.** And the “N-acetyl-β-D-gluc (Jack bean), typical DNJ inhibitory activity” value [5]?
**A.** NI

**Q.** What about the “N-acetyl-β-D-gluc (Bovine kidney, typical DNJ inhibitory activity)” value [6] of the same molecule?
**A.** NI

**Q.** What about the “naringinase Penecillium, typical DNJ inhibitory activity” value [7] of the same molecule?
**A.** NI

**Q.** And the “β-glucuronidase (bovine liver), typical DNJ inhibitory activity” value [8]?
**A.** NI

**Q.** And the “β-D-gal bovine, typical DNJ inhibitory activity” value [9]?
**A.** NI

**Q.** What about the “β-D-man Cellulomonas, typical DNJ inhibitory activity” value [10] of the same molecule?
**A.** NI

**Q.** And the “α-D-glu Bacillus, typical DNJ inhibitory activity” value [11]?
**A.** potent

**Q.** What about the “α-D-gal green coffee bean, typical DNJ inhibitory activity” value [12] of the same molecule?
**A.** weak

**Q.** What about the “α-D-glu rice, typical DNJ inhibitory activity” value [13] of the same molecule?
**A.** potent

**Q.** What about the “β-D-glu almond, typical DNJ inhibitory activity” value [14] of the same molecule?
**A.** moderate

Reference: patent publication US11484561B2, “Morus extracts rich in N-acids of imino sugars and or pipecolic acids” (Phynova Limited, priority 2011, dated 2022)
